The assay addresses LMPTP-A (Low Molecular Weight Protein Tyrosine Phosphatase-A) enzyme (Homo sapiens (Human), UniProt P24666). Put plainly: LMPTP primary screening / LMPTP (OMFP) enzyme inhibition assay, fluorescence intensity. Type of assay: biochemical. The note with it: LMPTP-A, OMFP substrate, method of Example 2; read-out: IC50. The essentials:
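0.625 nM LMPTP-A with 400 μM OMFP substrate in 50 mM Bis-Tris pH 6.0, 1 mM DTT, 0.01% Triton X-100, […]. Compounds at 20 μM final. Incubated 50 min at room temperature in the dark; fluorescence intensity read.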
LMPTP-A (Low Molecular Weight Protein Tyrosine Phosphatase-A) enzyme, sequence (P24666 whole entry): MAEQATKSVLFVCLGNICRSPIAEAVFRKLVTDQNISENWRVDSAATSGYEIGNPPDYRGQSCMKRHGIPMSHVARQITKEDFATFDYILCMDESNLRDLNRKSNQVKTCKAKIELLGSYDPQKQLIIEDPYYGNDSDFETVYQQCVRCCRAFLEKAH
As to `O=C(O)CCC(=O)Nc1ccc(-c2cc(NCCCN3CCCCC3)c3ccccc3n2)cc1` [Compound I58], the IC50 (in general, the midpoint of a concentration-inhibition curve) was 801 to 5000 nM.
Take `N#CCCNC(=O)c1ccc(-c2cc(NCCCN3CCCCC3)c3ccccc3n2)cc1` [Compound I59]: the IC50 lay within 200 to 800 nM.
Then `CC(C)NC(=O)c1ccc(-c2cc(NCCCN3CCCCC3)c3ccccc3n2)cc1` [Compound I61, N-(methylethyl)(4-{4-[(3-piperidylpropyl)amino](2-quinolyl)}phenyl)carboxamide], with 801 to 5000 nM; and `CCNC(=O)c1ccc(-c2cc(NCCCN3CCCCC3)c3ccccc3n2)cc1` [Compound I62], with 801 to 5000 nM.
Then `O=C(NCC(F)(F)F)c1ccc(-c2cc(NCCCN3CCCCC3)c3ccccc3n2)cc1` [Compound I63], with 801 to 5000 nM; and `O=C(NCC1CCCO1)c1ccc(-c2cc(NCCCN3CCCCC3)c3ccccc3n2)cc1` (centres unmarked) [Compound I64], with 801 to 5000 nM.
The value for `CCOC(=O)CNC(=O)c1ccc(-c2cc(NCCCN3CCCCC3)c3ccccc3n2)cc1` [Compound I65] was 200 to 800 nM.
In the case of `CN(C)CCNC(=O)c1ccc(-c2cc(NCCCN3CCCCC3)c3ccccc3n2)cc1` [Compound I66], the IC50 lay in the range of 200 to 800 nM.
Take `O=C(NCCCO)c1ccc(-c2cc(NCCCN3CCCCC3)c3ccccc3n2)cc1` [Compound I67]: the IC50 fell in the range of 200 to 800 nM.
Consider `O=C(O)CNC(=O)c1ccc(-c2cc(NCCCN3CCCCC3)c3ccccc3n2)cc1` [Compound I68], for which the IC50 was 801 to 5000 nM.
Then `COC(=O)CNC(=O)c1ccc(-c2cc(NCCCN3CCCCC3)c3ccccc3n2)cc1` [Compound I69], with 801 to 5000 nM.
Then `CCN(CC)C(=O)c1ccc(-c2cc(NCCCC3CCCNC3)c3ccccc3n2)cc1` (centres unmarked) [Compound I71, N,N-diethyl(4-{4-[(3-piperidylpropyl)amino](2-quinolyl)}phenyl)carboxamide], with 200 to 800 nM; and `CN(C)C(=O)c1ccc(-c2cc(NCCCN3CCCCC3)c3ccccc3n2)cc1` [Compound I72], with 801 to 5000 nM.
With `CNC(=O)c1ccc(-c2cc(NCCCN3CCCCC3)c3ccccc3n2)cc1` [Compound I73], the IC50 fell in the range of 801 to 5000 nM.
Turning to `FC(F)(F)c1ccc(Nc2cc(NCCCN3CCCCC3)c3ccccc3n2)c(C(F)(F)F)c1` [Compound I75], the IC50 is above 5000 nM.
The value for `Clc1cccc(Nc2cc(NCCCN3CCCCC3)c3ccccc3n2)c1` [Compound I76] was above 5000 nM; that for `CC(=O)Nc1ccc(-c2cc(NCCCN3CCCCC3)c3ccccc3n2)cc1C(F)(F)F` [Compound I77] was 801 to 5000 nM.
Take `c1ccc2c(NCCCN3CCCCC3)cc(-c3ccc4ccsc4c3)nc2c1` [Compound I78]: the IC50 was 200 to 800 nM.
The value for `CC(=O)OCc1cccc(-c2cc(NCCCN3CCCCC3)c3ccccc3n2)c1` [Compound I79, 3-{4-[(3-piperidylpropyl)amino]-2-quinolyl}phenyl)methyl acetate] was 801 to 5000 nM.
Consider `Nc1cc(C(=O)N2CCOCC2)cc(-c2cc(NCCCN3CCCCC3)c3ccccc3n2)c1` [Compound I80], for which the IC50 fell in the range of 801 to 5000 nM.
As to `NC(=O)c1ccc(-c2cc(NCCCN3CCCCC3)c3ccccc3n2)cc1F` [Compound I81], the IC50 is 200 to 800 nM.
Then `NC(=O)c1ccc(-c2cc(NCCCN3CCCCC3)c3ccccc3n2)cc1Cl` [Compound I82], with 200 to 800 nM; and `Cc1cc(-c2cc(NCCCN3CCCCC3)c3ccccc3n2)cnc1C#N` [Compound I83], with 801 to 5000 nM; and `O=C(c1ccc(-c2cc(NCCCN3CCCCC3)c3ccccc3n2)cc1)N1CCCC1` [Compound I84, 4-{4-[(3-piperidylpropyl)amino](2-quinolyl)}phenyl pyrrolidinyl ketone], with 801 to 5000 nM.
As for `Fc1cc(F)cc(-c2cc(NCCCN3CCCCC3)c3ccccc3n2)c1` [Compound I85], the IC50 fell in the range of 801 to 5000 nM.
As for `Fc1cc(F)c(-c2cc(NCCCN3CCCCC3)c3ccccc3n2)cc1F` [Compound I86], the IC50 lay within 801 to 5000 nM.
With `FC(F)(F)c1ccc(Oc2ccc(-c3cc(NCCCN4CCCCC4)c4ccccc4n3)cn2)cc1` [Compound I87], the IC50 was in the range of 801 to 5000 nM.
With `Fc1ccc(-c2cc(NCCCN3CCCCC3)c3ccccc3n2)c(F)n1` [Compound I90], the IC50 fell in the range of 801 to 5000 nM.
The value for `CSc1cncc(-c2cc(NCCCN3CCCCC3)c3ccccc3n2)c1` [Compound I92] was 801 to 5000 nM.
Then `CCCCOc1ncccc1-c1cc(NCCCN2CCCCC2)c2ccccc2n1` [Compound I93], with 801 to 5000 nM; and `Fc1cccnc1-c1cc(NCCCN2CCCCC2)c2ccccc2n1` [Compound I94], with 801 to 5000 nM; and `CCOc1ncccc1-c1cc(NCCCN2CCCCC2)c2ccccc2n1` [Compound I96], with 801 to 5000 nM.
As for `Fc1cccc(-c2cc(NCCCN3CCCCC3)c3ccccc3n2)n1` [Compound I97], the IC50 was 801 to 5000 nM.
`CC(C)(C)OC(=O)n1c(-c2cc(NCCCN3CCCCC3)c3ccccc3n2)cc2ccccc21` [Compound I98, tert-butyl 2-{4-[(3-piperidylpropyl)amino]-2-quinolyl}indolecarboxylate]: the 50% inhibitory concentration (IC50) is above 5000 nM.
On to `Clc1ncccc1-c1cc(NCCCN2CCCCC2)c2ccccc2n1` [Compound I99], for which the IC50 lay within 801 to 5000 nM.
Then `Clc1cc(-c2cc(NCCCN3CCCCC3)c3ccccc3n2)ccn1` [Compound I102], with 801 to 5000 nM.
Take `CCOc1ccc(C(F)(F)F)c(-c2cc(NCCCN3CCCCC3)c3ccccc3n2)c1` [Compound I105]: the IC50 fell in the range of 801 to 5000 nM.
The value for `CN(C)S(=O)(=O)c1ccc(C(F)(F)F)c(-c2cc(NCCCN3CCCCC3)c3ccccc3n2)c1` [Compound I106] was 801 to 5000 nM; that for `Cc1ccc(C)c(-c2cc(NCCCN3CCCCC3)c3ccccc3n2)c1` [Compound I107] was 801 to 5000 nM; that for `COc1ccc(-c2cc(NCCCN3CCCCC3)c3ccccc3n2)cc1OC` [Compound I108] was 801 to 5000 nM.
Then `Cn1ccc2cc(-c3cc(NCCCN4CCCCC4)c4ccccc4n3)ccc21` [Compound I109], with 200 to 800 nM; and `c1ccc2c(NCCCN3CCCCC3)cc(-c3ccc4[nH]ccc4c3)nc2c1` [Compound I110], with 801 to 5000 nM.
Then `c1ccc2c(NCCCN3CCCCC3)cc(-c3ccc4nc[nH]c4c3)nc2c1` [Compound I111], with 801 to 5000 nM.
Regarding `Cc1noc(C)c1-c1cc(NCCCN2CCCCC2)c2ccccc2n1` [Compound I112], the IC50 is above 5000 nM.
Then `CSc1ccc(-c2cc(NCCCN3CCCCC3)c3ccccc3n2)c(C(F)(F)F)c1` [Compound I114], with 801 to 5000 nM.
`Fc1ccc(-c2cc(NCCCN3CCCCC3)c3ccccc3n2)c(F)c1F` [Compound I115]: the IC50 lay in the range of 801 to 5000 nM.
The value for `CC(=O)Nc1ccccc1-c1cc(NCCCN2CCCCC2)c2ccccc2n1` [Compound I116] was above 5000 nM; that for `CC(=O)Nc1ccc(-c2cc(NCCCN3CCCCC3)c3ccccc3n2)cc1` [Compound I117] was 801 to 5000 nM; that for `CC(=O)Nc1cccc(-c2cc(NCCCN3CCCCC3)c3ccccc3n2)c1` [Compound I118] was 801 to 5000 nM.
The value for `FC(F)(F)c1cc(Cl)ccc1-c1cc(NCCCN2CCCCC2)c2ccccc2n1` [Compound I119] was 801 to 5000 nM; that for `FC(F)(F)c1ccc(-c2cc(NCCCC3CCCNC3)c3ccccc3n2)c(Cl)c1` (centres unmarked) [Compound I120] was 801 to 5000 nM.
The value for `CS(=O)(=O)c1ccc(-c2cc(NCCCN3CCCCC3)c3ccccc3n2)c(C(F)(F)F)c1` [Compound I121] was 801 to 5000 nM; that for `Fc1ccc(-c2cc(NCCCN3CCCCC3)c3ccccc3n2)c(C(F)(F)F)c1` [Compound I122] was 801 to 5000 nM.
Turning to `NC(=O)c1cccc(-c2cc(NCCCN3CCCCC3)c3ccccc3n2)c1` [Compound I123], the IC50 was in the range of 801 to 5000 nM.
Take `c1ccc2[nH]c(-c3cc(NCCCN4CCCCC4)c4ccccc4n3)cc2c1` [Compound I124]: the IC50 is above 5000 nM.
The value for `c1ccc2c(NCCCN3CCCCC3)cc(-c3ccc4c(c3)OCCO4)nc2c1` [Compound I125] was 801 to 5000 nM.
On to `Fc1cc(Cl)ccc1-c1cc(NCCCN2CCCCC2)c2ccccc2n1` [Compound I126], for which the half-maximal inhibitory concentration (IC50) is 200 to 800 nM.
In the case of `O=C(O)c1cccc(-c2cc(NCCCN3CCCCC3)c3ccccc3n2)c1` [Compound I128], the IC50 was 801 to 5000 nM.
Then `CN(C)c1cccc(-c2cc(NCCCN3CCCCC3)c3ccccc3n2)c1` [Compound I129], with 801 to 5000 nM.
Then `Fc1cccc(F)c1-c1cc(NCCCN2CCCCC2)c2ccccc2n1` [Compound I130], with 801 to 5000 nM; and `FC(F)(F)COc1ccccc1-c1cc(NCCCN2CCCCC2)c2ccccc2n1` [Compound I131], with 801 to 5000 nM; and `CS(=O)(=O)c1ccc(-c2cc(NCCCN3CCCCC3)c3ccccc3n2)cc1` [Compound I132], with 801 to 5000 nM.
As to `COc1ccc(Cl)cc1-c1cc(NCCCN2CCCCC2)c2ccccc2n1` [Compound I133], the IC50 is 801 to 5000 nM.
On to `Cc1cc(Cl)ccc1-c1cc(NCCCN2CCCCC2)c2ccccc2n1` [Compound I134], for which the IC50 was in the range of 801 to 5000 nM.
Then `COCc1ccc(-c2cc(NCCCN3CCCCC3)c3ccccc3n2)cc1` [Compound I135], with 200 to 800 nM; and `c1ccc2c(NCCCN3CCCCC3)cc(-c3ccsc3)nc2c1` [Compound I136], with above 5000 nM; and `CCOC(=O)c1cccc(-c2cc(NCCCN3CCCCC3)c3ccccc3n2)c1` [Compound I137], with 801 to 5000 nM.
Then `c1ccc2sc(-c3cc(NCCCN4CCCCC4)c4ccccc4n3)cc2c1` [Compound I140], with 801 to 5000 nM; and `COc1ncc(-c2cc(NCCCN3CCCCC3)c3ccccc3n2)c(OC)n1` [Compound I141], with 801 to 5000 nM; and `Clc1ccc(-c2cc(NCCCN3CCCCC3)c3ccccc3n2)s1` [Compound I142], with 801 to 5000 nM.
With `c1ccc2c(NCCCN3CCCCC3)cc(-c3cncnc3)nc2c1` [Compound I143], the IC50 lay in the range of 801 to 5000 nM.

For the origin of these results see patent publication US10626094B2 (La Jolla Institute of Allergy & Immunology, priority 2014, dated 2020).
